Reference: patent US4472404A, “8-Quinolinyl carbamates and their use as urinary tract antimicrobials” (priority 1982, dated 1984)
In brackets after ≈: the same amount, converted by molar mass.

Test system: Aspergillus niger
Experiment: Agar-plate minimum inhibitory concentration (Example 12)
Assay type: cell-based
Details: agar, 72-120 hours, read-out: Minimum Inhibitory Concentration
Protocol: (§1) The test compound was added to molten agar as a solution (when conveniently soluble in a solvent such as dimethylformamide) or a suspension forming a mixture having a concentration of 0.05 percent (500 ppm). The mixture was stirred and poured into plates to harden. When hardened, the plates were inoculated with various bacteria and fungi. The bacteria-inoculated plates were incubated at 37° C. for 24 hours, while the fungi-inoculated plates were incubated for about 72-120 hours. Following incubation, the plates were examined for growth or inhibition of the respective organisms.
(§2) After the initial readings, compounds showing sufficient activity were re-tested at various concentrations to determine the minimum inhibitory concentration (in ppm) of the compounds of the invention against the various bacteria and fungi tested.

In order of falling MIC:
1. CCOC(=O)CNC(=O)Oc1cccc2cccnc12 [Example 9, Ethyl N-(((8-quinolinyl)oxy)carbonyl)glycinate]  100 µg/mL (≈ 365 µM)
2. CCOC(=O)CNC(=O)Oc1ccc(Cl)c2cccnc12 [Example 1, Ethyl N-(((5-chloro-8-quinolinyl)oxy)-carbonyl)glycinate]  10 µg/mL (≈ 32.4 µM)

Test system: Bacillus subtilis
Experiment: as above
Assay type: cell-based
Details: agar, 37° C., 24 hours, read-out: Minimum Inhibitory Concentration
Protocol: as §1, §2

In order of rising MIC:
1. CCOC(=O)CNC(=O)Oc1cccc2cccnc12 [Example 9, Ethyl N-(((8-quinolinyl)oxy)carbonyl)glycinate]  10 µg/mL (≈ 36.5 µM)
2. CCOC(=O)CNC(=O)Oc1ccc(Cl)c2cccnc12 [Example 1, Ethyl N-(((5-chloro-8-quinolinyl)oxy)-carbonyl)glycinate]  10 µg/mL (≈ 32.4 µM)

Test system: Candida albicans
Experiment: as above
Assay type: cell-based
Details: agar, 72-120 hours, read-out: Minimum Inhibitory Concentration
Protocol: as §1, §2

In order of falling MIC:
1. CCOC(=O)CNC(=O)Oc1cccc2cccnc12 [Example 9, Ethyl N-(((8-quinolinyl)oxy)carbonyl)glycinate]  100 µg/mL (≈ 365 µM)
2. CCOC(=O)CNC(=O)Oc1ccc(Cl)c2cccnc12 [Example 1, Ethyl N-(((5-chloro-8-quinolinyl)oxy)-carbonyl)glycinate]  10 µg/mL (≈ 32.4 µM)

Test system: Candida pelliculosa
Experiment: as above
Assay type: cell-based
Details: Hansenula anomala; Candida pelliculosa; agar, 72-120 hours; read-out: Minimum Inhibitory Concentration
Protocol: as §1, §2

In order of falling MIC:
1. CCOC(=O)CNC(=O)Oc1cccc2cccnc12 [Example 9, Ethyl N-(((8-quinolinyl)oxy)carbonyl)glycinate]  50 µg/mL (≈ 182 µM)
2. CCOC(=O)CNC(=O)Oc1ccc(Cl)c2cccnc12 [Example 1, Ethyl N-(((5-chloro-8-quinolinyl)oxy)-carbonyl)glycinate]  10 µg/mL (≈ 32.4 µM)

Test system: Ceratocystis ips
Experiment: as above
Assay type: cell-based
Details: Ceratocystis ips; agar, 72-120 hours; read-out: Minimum Inhibitory Concentration
Protocol: as §1, §2

In order of falling MIC:
1. CCOC(=O)CNC(=O)Oc1cccc2cccnc12 [Example 9, Ethyl N-(((8-quinolinyl)oxy)carbonyl)glycinate]  100 µg/mL (≈ 365 µM)
2. CCOC(=O)CNC(=O)Oc1ccc(Cl)c2cccnc12 [Example 1, Ethyl N-(((5-chloro-8-quinolinyl)oxy)-carbonyl)glycinate]  50 µg/mL (≈ 162 µM)

Test system: Salmonella typhosa
Experiment: as above
Assay type: cell-based
Details: Salmonella enterica; Salmonella typhosa; agar, 37° C., 24 hours; read-out: Minimum Inhibitory Concentration
Protocol: as §1, §2

In order of rising MIC:
1. CCOC(=O)CNC(=O)Oc1cccc2cccnc12 [Example 9, Ethyl N-(((8-quinolinyl)oxy)carbonyl)glycinate]  50 µg/mL (≈ 182 µM)
2. CCOC(=O)CNC(=O)Oc1ccc(Cl)c2cccnc12 [Example 1, Ethyl N-(((5-chloro-8-quinolinyl)oxy)-carbonyl)glycinate]  50 µg/mL (≈ 162 µM)

Test system: Streptococcus mutans
Experiment: as above
Assay type: cell-based
Details: agar, 37° C., 24 hours, read-out: Minimum Inhibitory Concentration
Protocol: as §1, §2

In order of rising MIC:
1. CCOC(=O)CNC(=O)Oc1cccc2cccnc12 [Example 9, Ethyl N-(((8-quinolinyl)oxy)carbonyl)glycinate]  5 µg/mL (≈ 18.2 µM)
2. CCOC(=O)CNC(=O)Oc1ccc(Cl)c2cccnc12 [Example 1, Ethyl N-(((5-chloro-8-quinolinyl)oxy)-carbonyl)glycinate]  100 µg/mL (≈ 324 µM)

Test system: Trichophyton mentagrophytes
Experiment: as above
Assay type: cell-based
Details: agar, 72-120 hours, read-out: Minimum Inhibitory Concentration
Protocol: as §1, §2

In order of rising MIC:
1. CCOC(=O)CNC(=O)Oc1ccc(Cl)c2cccnc12 [Example 1, Ethyl N-(((5-chloro-8-quinolinyl)oxy)-carbonyl)glycinate]  10 µg/mL (≈ 32.4 µM)
2. CCOC(=O)CNC(=O)Oc1cccc2cccnc12 [Example 9, Ethyl N-(((8-quinolinyl)oxy)carbonyl)glycinate]  50 µg/mL (≈ 182 µM)

Test system: Enterobacter aerogenes ATCC 13048
Experiment: Minimum inhibitory concentration, urinary tract organisms (Example 13)
Assay type: cell-based
Details: Klebsiella aerogenes, ATCC13048; Ea 13048; read-out: Minimum Inhibitory Concentration
Protocol: as §1, §2
(§3) Following a procedure substantially the same as that described in Example 12, the minimum inhibitory concentration for the compounds described herein was determined for various organisms representative of those commonly associated with urinary tract infections.
(§4) The organisms used in this procedure and the abbreviations designated in Table 3 are as follows: […]

In order of rising MIC:
1. CCOC(=O)CNC(=O)Oc1ccc(Cl)c2cccnc12 [Example 1, Ethyl N-(((5-chloro-8-quinolinyl)oxy)-carbonyl)glycinate]  50 µg/mL (≈ 162 µM)
2. CCOC(=O)CNC(=O)Oc1cccc2cccnc12 [Example 9, Ethyl N-(((8-quinolinyl)oxy)carbonyl)glycinate]  100 µg/mL (≈ 365 µM)

Test system: Escherichia coli ATCC 11229
Experiment: as above
Assay type: cell-based
Details: ATCC11229, Ec 11229, read-out: Minimum Inhibitory Concentration
Protocol: as §1, §2, §3, §4

In order of falling MIC:
1. CCOC(=O)CNC(=O)Oc1cccc2cccnc12 [Example 9, Ethyl N-(((8-quinolinyl)oxy)carbonyl)glycinate]  75 µg/mL (≈ 273 µM)
2. CCOC(=O)CNC(=O)Oc1ccc(Cl)c2cccnc12 [Example 1, Ethyl N-(((5-chloro-8-quinolinyl)oxy)-carbonyl)glycinate]  25 µg/mL (≈ 81 µM)

Test system: Escherichia coli ATCC 25922
Experiment: as above
Assay type: cell-based
Details: ATCC25922, Ec 25922, read-out: Minimum Inhibitory Concentration
Protocol: as §1, §2, §3, §4

In order of falling MIC:
1. CCOC(=O)CNC(=O)Oc1cccc2cccnc12 [Example 9, Ethyl N-(((8-quinolinyl)oxy)carbonyl)glycinate]  75 µg/mL (≈ 273 µM)
2. CCOC(=O)CNC(=O)Oc1ccc(Cl)c2cccnc12 [Example 1, Ethyl N-(((5-chloro-8-quinolinyl)oxy)-carbonyl)glycinate]  25 µg/mL (≈ 81 µM)

Test system: Escherichia coli ATCC 4157
Experiment: as above
Assay type: cell-based
Details: ATCC4157, Ec 4157, read-out: Minimum Inhibitory Concentration
Protocol: as §1, §2, §3, §4

In order of falling MIC:
1. CCOC(=O)CNC(=O)Oc1cccc2cccnc12 [Example 9, Ethyl N-(((8-quinolinyl)oxy)carbonyl)glycinate]  75 µg/mL (≈ 273 µM)
2. CCOC(=O)CNC(=O)Oc1ccc(Cl)c2cccnc12 [Example 1, Ethyl N-(((5-chloro-8-quinolinyl)oxy)-carbonyl)glycinate]  25 µg/mL (≈ 81 µM)

Test system: Escherichia coli ATCC 9723
Experiment: as above
Assay type: cell-based
Details: ATCC9723, Ec 9723, read-out: Minimum Inhibitory Concentration
Protocol: as §1, §2, §3, §4

In order of rising MIC:
1. CCOC(=O)CNC(=O)Oc1ccc(Cl)c2cccnc12 [Example 1, Ethyl N-(((5-chloro-8-quinolinyl)oxy)-carbonyl)glycinate]  25 µg/mL (≈ 81 µM)
2. CCOC(=O)CNC(=O)Oc1cccc2cccnc12 [Example 9, Ethyl N-(((8-quinolinyl)oxy)carbonyl)glycinate]  75 µg/mL (≈ 273 µM)

Test system: Klebsiella pneumoniae ATCC 23357
Experiment: as above
Assay type: cell-based
Details: ATCC23357, Kp 23357, read-out: Minimum Inhibitory Concentration
Protocol: as §1, §2, §3, §4

In order of rising MIC:
1. CCOC(=O)CNC(=O)Oc1ccc(Cl)c2cccnc12 [Example 1, Ethyl N-(((5-chloro-8-quinolinyl)oxy)-carbonyl)glycinate]  25 µg/mL (≈ 81 µM)
2. CCOC(=O)CNC(=O)Oc1cccc2cccnc12 [Example 9, Ethyl N-(((8-quinolinyl)oxy)carbonyl)glycinate]  50 µg/mL (≈ 182 µM)

Test system: Klebsiella pneumoniae M-1
Experiment: as above
Assay type: cell-based
Details: M1, Kp M-1, read-out: Minimum Inhibitory Concentration
Protocol: as §1, §2, §3, §4

In order of rising MIC:
1. CCOC(=O)CNC(=O)Oc1ccc(Cl)c2cccnc12 [Example 1, Ethyl N-(((5-chloro-8-quinolinyl)oxy)-carbonyl)glycinate]  50 µg/mL (≈ 162 µM)
2. CCOC(=O)CNC(=O)Oc1cccc2cccnc12 [Example 9, Ethyl N-(((8-quinolinyl)oxy)carbonyl)glycinate]  100 µg/mL (≈ 365 µM)

Test system: Klebsiella pneumoniae M-2
Experiment: as above
Assay type: cell-based
Details: M2, Kp M-2, read-out: Minimum Inhibitory Concentration
Protocol: as §1, §2, §3, §4

In order of rising MIC:
1. CCOC(=O)CNC(=O)Oc1ccc(Cl)c2cccnc12 [Example 1, Ethyl N-(((5-chloro-8-quinolinyl)oxy)-carbonyl)glycinate]  50 µg/mL (≈ 162 µM)
2. CCOC(=O)CNC(=O)Oc1cccc2cccnc12 [Example 9, Ethyl N-(((8-quinolinyl)oxy)carbonyl)glycinate]  100 µg/mL (≈ 365 µM)

Test system: Klebsiella pneumoniae M-6
Experiment: as above
Assay type: cell-based
Details: M6, Kp M-6, read-out: Minimum Inhibitory Concentration
Protocol: as §1, §2, §3, §4

In order of rising MIC:
1. CCOC(=O)CNC(=O)Oc1ccc(Cl)c2cccnc12 [Example 1, Ethyl N-(((5-chloro-8-quinolinyl)oxy)-carbonyl)glycinate]  25 µg/mL (≈ 81 µM)
2. CCOC(=O)CNC(=O)Oc1cccc2cccnc12 [Example 9, Ethyl N-(((8-quinolinyl)oxy)carbonyl)glycinate]  75 µg/mL (≈ 273 µM)

Test system: Proteus mirabilis 470/1
Experiment: as above
Assay type: cell-based
Details: Pm 470/1, read-out: Minimum Inhibitory Concentration
Protocol: as §1, §2, §3, §4

In order of falling MIC:
1. CCOC(=O)CNC(=O)Oc1cccc2cccnc12 [Example 9, Ethyl N-(((8-quinolinyl)oxy)carbonyl)glycinate]  75 µg/mL (≈ 273 µM)
2. CCOC(=O)CNC(=O)Oc1ccc(Cl)c2cccnc12 [Example 1, Ethyl N-(((5-chloro-8-quinolinyl)oxy)-carbonyl)glycinate]  50 µg/mL (≈ 162 µM)

Test system: Pseudomonas aeruginosa ATCC 10145
Experiment: as above
Assay type: cell-based
Details: ATCC10145, Pa 10145, read-out: Minimum Inhibitory Concentration
Protocol: as §1, §2, §3, §4

In order of falling MIC:
1. CCOC(=O)CNC(=O)Oc1cccc2cccnc12 [Example 9, Ethyl N-(((8-quinolinyl)oxy)carbonyl)glycinate]  50 µg/mL (≈ 182 µM)
2. CCOC(=O)CNC(=O)Oc1ccc(Cl)c2cccnc12 [Example 1, Ethyl N-(((5-chloro-8-quinolinyl)oxy)-carbonyl)glycinate]  25 µg/mL (≈ 81 µM)

Test system: Pseudomonas aeruginosa ATCC 27853
Experiment: as above
Assay type: cell-based
Details: ATCC27853, Pa 27853, read-out: Minimum Inhibitory Concentration
Protocol: as §1, §2, §3, §4

In order of falling MIC:
1. CCOC(=O)CNC(=O)Oc1cccc2cccnc12 [Example 9, Ethyl N-(((8-quinolinyl)oxy)carbonyl)glycinate]  250 µg/mL (≈ 911 µM)
2. CCOC(=O)CNC(=O)Oc1ccc(Cl)c2cccnc12 [Example 1, Ethyl N-(((5-chloro-8-quinolinyl)oxy)-carbonyl)glycinate]  100 µg/mL (≈ 324 µM)

Test system: Pseudomonas aeruginosa ATCC 7700
Experiment: as above
Assay type: cell-based
Details: ATCC7700, Pa 7700, read-out: Minimum Inhibitory Concentration
Protocol: as §1, §2, §3, §4

In order of falling MIC:
1. CCOC(=O)CNC(=O)Oc1cccc2cccnc12 [Example 9, Ethyl N-(((8-quinolinyl)oxy)carbonyl)glycinate]  500 µg/mL (≈ 1820 µM)
2. CCOC(=O)CNC(=O)Oc1ccc(Cl)c2cccnc12 [Example 1, Ethyl N-(((5-chloro-8-quinolinyl)oxy)-carbonyl)glycinate]  100 µg/mL (≈ 324 µM)

Test system: Pseudomonas aeruginosa PRD-10
Experiment: as above
Assay type: cell-based
Details: PRD10, Pa PRD-10, read-out: Minimum Inhibitory Concentration
Protocol: as §1, §2, §3, §4

In order of rising MIC:
1. CCOC(=O)CNC(=O)Oc1ccc(Cl)c2cccnc12 [Example 1, Ethyl N-(((5-chloro-8-quinolinyl)oxy)-carbonyl)glycinate]  100 µg/mL (≈ 324 µM)
2. CCOC(=O)CNC(=O)Oc1cccc2cccnc12 [Example 9, Ethyl N-(((8-quinolinyl)oxy)carbonyl)glycinate]  500 µg/mL (≈ 1820 µM)

Test system: Serratia marcescens M-1
Experiment: as above
Assay type: cell-based
Details: M1, Sr M-1, read-out: Minimum Inhibitory Concentration
Protocol: as §1, §2, §3, §4

In order of rising MIC:
1. CCOC(=O)CNC(=O)Oc1ccc(Cl)c2cccnc12 [Example 1, Ethyl N-(((5-chloro-8-quinolinyl)oxy)-carbonyl)glycinate]  50 µg/mL (≈ 162 µM)
2. CCOC(=O)CNC(=O)Oc1cccc2cccnc12 [Example 9, Ethyl N-(((8-quinolinyl)oxy)carbonyl)glycinate]  100 µg/mL (≈ 365 µM)

Test system: Staphylococcus aureus ATCC 25923
Experiment: as above
Assay type: cell-based
Details: ATCC25923, Sa 25923, read-out: Minimum Inhibitory Concentration
Protocol: as §1, §2, §3, §4

Compared with `CCOC(=O)CNC(=O)Oc1cccc2cccnc12` [Example 9, Ethyl N-(((8-quinolinyl)oxy)carbonyl)glycinate], `CCOC(=O)CNC(=O)Oc1ccc(Cl)c2cccnc12` [Example 1, Ethyl N-(((5-chloro-8-quinolinyl)oxy)-carbonyl)glycinate] is lower in MIC: 10 µg/mL (≈ 36.5 µM) for the first, at most 5 µg/mL for the second.
